In US12275734B1, “Pleuromutilin onium salt derivative containing a 3H-imidazo[4,5-c]pyridine side chain, and a preparation method and application thereof” (SHAANXI UNIVERSITY OF SCIENCE AND TECHNOLOGY, priority 2024, dated 2025) one finds MIC data, which are given here for 2 molecules.

Common to all, as to assay type: cell-based
Assay [1] concerns M. pneumoniae M129, ATCC29342. The experiment in a line: Anti-mycoplasma MIC. As to conditions: Mycoplasmoides pneumoniae. Here is the method: (§1) The antimycoplasma activity was quantified using the […]. Retapamulin was used as a positive control to test the minimum inhibitory concentration of 3H-imidazo[4,5-C]pyridine pleuromutilin onium salt derivatives.
(§2) (1) Preparation of KM2 medium: Weigh 38.9 g of KM2 medium, add it to 800 mL of distilled water, boil to dissolve, sterilize under high pressure at 115° C. for 20 min, and set aside.
(§3) (2) Preparation of bacterial stock solution: Take 0.5 mL of Mhp-J^a, Mhp-LH^b, Mhr-BTS-7^c, MG-R^d, MS-WVU1853^e, MP-M129^f, CP-AR-39^g, CP-CWL-029^h, CP-TW-183^i, MH-PG-21^j, MG-G37^k cultured to the logarithmic phase and transfer it to 4.5 mL of KM2 liquid culture medium. When the culture medium turns yellow, divide each bacterium into 0.5 mL per tube and store it at −70° C. as bacterial stock solution.
(§4) (3) Determination of bacterial titer (color change unit, CCU): Take out the bacterial stock solution stored at −70° C., melt and balance to room temperature, add 0.18 mL KM2 medium to each well of the middle 4 rows of the 96-well plate (i.e. 4 parallels), take 0.02 mL and add it to the first column, dilute 10 times to 10^−11, and set up a negative control containing only KM2 medium (12th column). After sealing, put it in a 37° C. incubator and observe the results every day. The highest dilution at which the color of the medium changes is the CCU/mL of the strain.
(§5) Take an appropriate amount of seed bacterial solution and dilute it to 10^4 CCU/mL in turn according to its titer. Add drugs of each dilution in a 96-well plate in turn, and then add an equal amount of diluted bacterial solution. Set 200 μL of diluted mycoplasma bacterial solution as a positive control, 200 μL of KM2 liquid culture medium as a negative control, and set a solvent control group (10 μL of drug solvent+190 μL of mycoplasma bacterial solution). Each experiment is set up in 3 parallels. After all culture plates are sealed, they are cultured at 37° C., observed daily, and the final MIC value is recorded.

Assay [2] relates to M. hominis PG-21, ATCC23114. Briefly: Anti-mycoplasma MIC. Particulars: Metamycoplasma hominis. How it is done: as §1, §2, §3, §4, §5
The subject of assay [3] is M. hyopneumoniae J, NCTC10110. Briefly: Anti-mycoplasma MIC. As to conditions: Mesomycoplasma hyopneumoniae. How it is done:
as §1, §2, §3, §4, §5

Assay [4] concerns C. pneumoniae AR39, ATCC53592. Briefly: Anti-mycoplasma MIC. As to conditions: Chlamydia pneumoniae. How it is done: as §1, §2, §3, §4, §5
The subject of assay [5] is C. pneumoniae TW183, VR-2282. The experiment in a line: Anti-mycoplasma MIC. As to conditions: Chlamydia pneumoniae, read-out: Antimycoplasma activity (MIC) CP-TW-183^i. Here is the method: as §1, §2, §3, §4, §5
Assay [6] concerns M. hyorhinis BTS-7, NCTC10130. Briefly: Anti-mycoplasma MIC. As to conditions: Mesomycoplasma hyorhinis. How it is done: as §1, §2, §3, §4, §5
For assay [7], the system named is M. genitalium G37, ATCC33530. Briefly: Anti-mycoplasma MIC. As to conditions: Mycoplasmoides genitalium. How it is done:
as §1, §2, §3, §4, §5

For assay [8], the system named is M. synoviae WVU1853, NCTC10124. The experiment in a line: Anti-mycoplasma MIC. As to conditions: Mycoplasmopsis synoviae. How it is done:
as §1, §2, §3, §4, §5

For assay [9], the system named is M. galliscepticum, NCTC10115. The experiment in a line: Anti-mycoplasma MIC. As to conditions: read-out: Antimycoplasma activity (MIC) MG-R^d. How it is done:
as §1, §2, §3, §4, §5

The test system of assay [10] is Methicillin-resistant S. aureus ATCC 43300. The experiment in a line: MIC, broth microdilution. Particulars: Staphylococcus aureus, ATCC 43300 / MRSA, read-out: Minimum inhibitory concentration MRSA^c. In short, it runs like this: (§6)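 Two-fold broth microdilution in MHB; inoculum 5×10^5 CFU/mL final, from log-phase cultures adjusted to 0.5 McFarland. Plates incubated 24 h at 37° C. Test compounds from 2560 μg/mL stock in 1% DMSO; drug-free negative control included.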
(In broth dilution the organism is exposed to a series of concentrations in liquid medium.)

Assay [11] relates to S. enterica ATCC14028. The experiment in a line: MIC, broth microdilution. As to conditions: Salmonella enterica. In short, it runs like this:
as §6

≈ marks a conversion by molar mass, not a printed value. Like-named read-outs stand apart in the source and are kept apart here.

With `C=C[C@]1(C)C[C@@H](OC(=O)CSc2nc3cc[n+](Cc4ccc(C)cc4)cc3[nH]2)[C@]2(C)[C@H](C)CC[C@]3(CCC(=O)[C@H]32)[C@@H](C)[C@@H]1O` [Compound i, 5-(4-methylbenzyl)-2-((2-(((3aR,4R,5R,7S,8S,9R,9aS,12R)-8-hydroxy-4,7,9,12-tetramethyl-3-oxo-7-vinyldecahydro-4,9a-propancyclopenta[8]cyclo-5-yl)oxy)-2-oxoethyl)thio)-3H-imidazo[4,5-C]pyridine-5-ium], the MIC in assay [1] (ATCC29342, M. pneumoniae M129, read-out: Antimycoplasma activity (MIC) MP-M129^f) came to 0.008 µg/mL; in assay [2] (ATCC23114, M. hominis PG-21, read-out: Antimycoplasma activity (MIC) MH-PG-21^j), 0.015 µg/mL; in [3] (NCTC10110, M. hyopneumoniae J, read-out: Antimycoplasma activity (MIC) Mhp-J^a), 0.02 µg/mL; in assay [4] (ATCC53592, C. pneumoniae AR39, read-out: Antimycoplasma activity (MIC) CP-AR-39^g), 0.002 µg/mL; in assay [5] (C. pneumoniae TW183), 0.01 µg/mL; in [6] (NCTC10130, M. hyorhinis BTS-7, read-out: Antimycoplasma activity (MIC) Mhr-BTS-7^c), 0.03 µg/mL. In addition, the MIC came to 0.03 µg/mL in assay [7] (ATCC33530, M. genitalium G37, read-out: Antimycoplasma activity (MIC) MG-G37^k); 0.015 µg/mL in [8] (NCTC10124, M. synoviae WVU1853, read-out: Antimycoplasma activity (MIC) MS-WVU1853^e); 0.04 µg/mL in assay [9] (M. galliscepticum); 0.0625 µg/mL in assay [10] (Methicillin-resistant S. aureus ATCC 43300); 0.25 µg/mL in assay [11] (S. enterica ATCC14028, read-out: Minimum inhibitory concentration S.e.^g).

For the molecule `C=C[C@]1(C)C[C@@H](OC(=O)CS[C@@H]2C[C@H]3CC[C@@H](C2)N3C)[C@]2(C)[C@H](C)CC[C@]3(CCC(=O)[C@H]32)[C@@H](C)[C@@H]1O` [Retapamulin, reference compound], the MIC in assay [1] (ATCC29342, read-out: Antimycoplasma activity (MIC) MP-M129^f) is 0.015 µg/mL (≈ 0.029 µM); in [2] (ATCC23114, read-out: Antimycoplasma activity (MIC) MH-PG-21^j) it was 0.25 µg/mL (≈ 0.483 µM); in [3] (NCTC10110, read-out: Antimycoplasma activity (MIC) Mhp-J^a) it was 0.03 µg/mL (≈ 0.0579 µM); in assay [4] (ATCC53592, read-out: Antimycoplasma activity (MIC) CP-AR-39^g) it was 0.125 µg/mL (≈ 0.241 µM); in assay [5] it was 0.03 µg/mL (≈ 0.0579 µM); in assay [6] (NCTC10130, read-out: Antimycoplasma activity (MIC) Mhr-BTS-7^c) it was 0.03 µg/mL (≈ 0.0579 µM). Besides, the MIC was determined as 0.03 µg/mL (≈ 0.0579 µM) in assay [7] (ATCC33530, read-out: Antimycoplasma activity (MIC) MG-G37^k); 2 µg/mL (≈ 3.86 µM) in assay [8] (NCTC10124, read-out: Antimycoplasma activity (MIC) MS-WVU1853^e); 0.125 µg/mL (≈ 0.241 µM) in assay [9]; 16 µg/mL (≈ 30.9 µM) in [10]; 128 µg/mL (≈ 247 µM) in assay [11] (ATCC14028, read-out: Minimum inhibitory concentration S.e.^g).
